These results are taken from patent publication US20240174714A1, “TREATMENT OF SKIN DISORDERS” (priority 2021, published 2024).

Each structure is given as a SMILES string. Like-named read-outs stand apart in the source and are kept apart here. Square brackets hold non-standard residues; d marks the D form. Peptide text beside a SMILES is read from it. * marks the point of attachment. NH((S)CH(Me)CH2NMe2) = C[C@@H](CN(C)C)N*; NH(1-CH2NMe2-cBu) = CN(C)CC1(N*)CCC1; Gly(octyl) = CCCCCCCC[C@H](N)C(=O)O; Oxazole4CO(2-Me) = Cc1nc(C(=O)*)co1; Benzoyl(4-F) = O=C(c1ccc(F)cc1)*; hCha = N[C@@H](CCC1CCCCC1)C(=O)O; Pyrrole2CO = O=C(c1ccc[nH]1)*; X10 = O=C(c1ccc2cccnc2c1)*; X12 = CN(C)CC1(N*)CCCC1; Aib = CC(C)(N)C(=O)O; X11 = CN(CCN*)CC(F)F; βAla = NCCC(=O)O

Data set [1] is described as follows: Cytotoxicity assay (Alamar Blue) on L6-cells. Format: cell-based, rat. The method, then:
Tests were done in triplicate.
The plates were incubated for additional 2 h.
(In general: Alamar Blue is a resazurin reagent that responds to reducing activity.)

Data set [2] deals with axenic Leishmania donovani MHOM-ET-67/L82 amastigotes. Kind of data set: In vitro antiprotozoal assay, axenic amastigotes. Format: cell-based.
Procedure: (§1) The testing of the inventive compounds against Leishmania donovani (strain MHOM/ET/67/L82) was performed in 96 well plates at concentrations in serial dilutions. Tests were done in triplicate.
In data set [3] the test system is intracellular Leishmania donovani MHOM-ET-67/L82 amastigotes. The data set can be described thus: In vitro antiprotozoal assay, intracellular amastigotes. Format: cell-based. The following applies: Leishmania donovani; reference compound, L.don.InMac; read-out: IC50 Concurrent.
Procedure: as §1
The mark [4] stands for this setting: rat myoblast L6 cells, read-out: Cytotox L6 IC50.
Where [5] appears, read: axenic amastigotes, read-out: L.don.ax. IC50.

For `CCCCCCCC[C@H](NC(=O)[C@@H]1CCCN1C(=O)c1ccc2cccnc2c1)C(=O)N[C@@H](CC(C)C)C(=O)NC(C)(C)C(=O)N[C@@H](CC(C)C)C(=O)N[C@@H](CC(C)C)C(=O)NC(C)(C)C(=O)NC(C)(C)C(=O)NCCC(=O)N[C@@H](C)CN(C)C` [Compound 5938, (2S)-N-[(1S)-1-[(1-{[(1S)-1-{[(1S)-1-{[1-({1-[(2-{[(2S)-1-(dimethylamino)propan-2-yl]carbamoyl}ethyl)carbamoyl]-1-methylethyl}carbamoyl)-1-methylethyl]carbamoyl}-3-methylbutyl]carbamoyl}-3-methylbutyl]carbamoyl}-1-methylethyl)carbamoyl]-3-methylbutyl]-2-{[(2S)-1-(quinoline-7-carbonyl)pyrrolidin-2-yl]formamido}decanamide] (X10-P[Gly(octyl)]L[Aib]LL[Aib][Aib][βAla]-{NH((S)CH(Me)CH2NMe2)}), the half-maximal inhibitory concentration (IC50) at 68 h in data set [1] (setting [4]) was 714 nM. Further, the half-inhibitory concentration (IC50) in data set [2] came to 13 nM.
On to `CCCCCCCC[C@H](NC(=O)[C@@H]1CCCN1C(=O)c1ccc[nH]1)C(=O)N[C@@H](CC(C)C)C(=O)NC(C)(C)C(=O)N[C@@H](CC(C)C)C(=O)N[C@@H](CC(C)C)C(=O)NC(C)(C)C(=O)NC(C)(C)C(=O)NCCC(=O)N[C@@H](C)CN(C)C` [Compound 5939, (2S)-N-[(1S)-1-[(1-{[(1S)-1-{[(1S)-1-{[1-({1-[(2-{[(2S)-1-(dimethylamino)propan-2-yl]carbamoyl}ethyl)carbamoyl]-1-methylethyl}carbamoyl)-1-methylethyl]carbamoyl}-3-methylbutyl]carbamoyl}-3-methylbutyl]carbamoyl}-1-methylethyl)carbamoyl]-3-methylbutyl]-2-{[(2S)-1-(1H-pyrrole-2-carbonyl)pyrrolidin-2-yl]formamido}decanamide] (Pyrrole2CO-P[Gly(octyl)]L[Aib]LL[Aib][Aib][βAla]-{NH((S)CH(Me)CH2NMe2)}), for which, in data set [1] (rat), the IC50 at 68 h came out at 611 nM. The IC50 in data set [2] (setting [5]) amounted to 8 nM.
For `CCCCCCCC[C@H](NC(=O)[C@@H]1CCCN1C(=O)c1coc(C)n1)C(=O)N[C@@H](CC(C)C)C(=O)NC(C)(C)C(=O)N[C@@H](CC(C)C)C(=O)N[C@@H](CC(C)C)C(=O)NC(C)(C)C(=O)NC(C)(C)C(=O)NCCC(=O)NC1(CN(C)C)CCC1` [Compound 6253, (2S)-N-[(1S)-1-[(1-{[(1S)-1-{[(1S)-1-({1-[(1-{[2-({1-[(dimethylamino)methyl]cyclobutyl}carbamoyl)ethyl]carbamoyl}-1-methylethyl)carbamoyl]-1-methylethyl}carbamoyl)-3-methylbutyl]carbamoyl}-3-methylbutyl]carbamoyl}-1-methylethyl)carbamoyl]-3-methylbutyl]-2-{[(2S)-1-(2-methyl-1,3-oxazole-4-carbonyl)pyrrolidin-2-yl]formamido}decanamide] ({Oxazole4CO(2-Me)}-P[Gly(octyl)]L[Aib]LL[Aib][Aib][βAla]-{NH(1-CH2NMe2-cBu)}), in that order: 945 nM and 2.6 nM.
For `CCCCCCCC[C@H](NC(=O)[C@@H]1CCCN1C(=O)c1coc(C)n1)C(=O)N[C@@H](CC(C)C)C(=O)NC(C)(C)C(=O)N[C@@H](CC(C)C)C(=O)N[C@@H](CC(C)C)C(=O)NC(C)(C)C(=O)NC(C)(C)C(=O)NCCC(=O)NC1(CN(C)C)CCCC1` [Compound 6254, (2S)-N-[(1S)-1-[(1-{[(1S)-1-{[(1S)-1-({1-[(1-{[2-({1-[(dimethylamino)methyl]cyclopentyl}carbamoyl)ethyl]carbamoyl}-1-methylethyl)carbamoyl]-1-methylethyl}carbamoyl)-3-methylbutyl]carbamoyl}-3-methylbutyl]carbamoyl}-1-methylethyl)carbamoyl]-3-methylbutyl]-2-{[(2S)-1-(2-methyl-1,3-oxazole-4-carbonyl)pyrrolidin-2-yl]formamido}decanamide] ({Oxazole4CO(2-Me)}-P[Gly(octyl)]L[Aib]LL[Aib][Aib][βAla]-X12), in that order: 528 nM and 2.5 nM.
For `Cc1nc(C(=O)N2CCC[C@H]2C(=O)N[C@@H](Cc2ccccc2)C(=O)N[C@@H](CC(C)C)C(=O)NC(C)(C)C(=O)N[C@@H](CC(C)C)C(=O)N[C@@H](CC(C)C)C(=O)NC(C)(C)C(=O)NC(C)(C)C(=O)NCCC(=O)NC2(CN(C)C)CCC2)co1` [Compound 6328, (2S)-N-(1-{[(1S)-1-{[(1S)-1-({1-[(1-{[2-({1-[(dimethylamino)methyl]cyclobutyl}carbamoyl)ethyl]carbamoyl}-1-methylethyl)carbamoyl]-1-methylethyl}carbamoyl)-3-methylbutyl]carbamoyl}-3-methylbutyl]carbamoyl}-1-methylethyl)-4-methyl-2-[(2S)-2-{[(2S)-1-(2-methyl-1,3-oxazole-4-carbonyl)pyrrolidin-2-yl]formamido}-3-phenylpropanamido]pentanamide] (HELM PEPTIDE1{[Cc1nc(C(=O)[*:2])co1].P.F.L.[Aib].L.L.[Aib].[Aib].[bAla].[CN(C)CC1(N[*:1])CCC1]}$$$$V2.0), in that order: 8720 nM and 381 nM.
On to `Cc1nc(C(=O)N2CCC[C@H]2C(=O)N[C@@H](CCC2CCCCC2)C(=O)N[C@@H](CC(C)C)C(=O)NC(C)(C)C(=O)N[C@@H](CC(C)C)C(=O)N[C@@H](CC(C)C)C(=O)NC(C)(C)C(=O)NC(C)(C)C(=O)NCCC(=O)NCCN(C)CC(F)F)co1` [Compound 6488, (2S)-2-[(2S)-4-cyclohexyl-2-{[(2S)-1-(2-methyl-1,3-oxazole-4-carbonyl)pyrrolidin-2-yl]formamido}butanamido]-N-(1-{[(1S)-1-{[(1S)-1-({1-[(1-{[2-({2-[(2,2-difluoroethyl)(methyl)amino]ethyl}carbamoyl)ethyl]carbamoyl}-1-methylethyl)carbamoyl]-1-methylethyl}carbamoyl)-3-methylbutyl]carbamoyl}-3-methylbutyl]carbamoyl}-1-methylethyl)-4-methylpentanamide] ({Oxazole4CO(2-Me)}-P[hCha]L[Aib]LL[Aib][Aib][βAla]-X11), for which the IC50 at 68 h in data set [1] (setting [4]) was found to be 7180 nM. The IC50 in data set [2] (setting [5]) turned out to be 429 nM.
As for `CC(C)C[C@H](NC(=O)[C@H](CCC1CCCCC1)NC(=O)[C@@H]1CCCN1C(=O)c1ccc(F)cc1)C(=O)NC(C)(C)C(=O)N[C@@H](CC(C)C)C(=O)N[C@@H](CC(C)C)C(=O)NC(C)(C)C(=O)NC(C)(C)C(=O)NCCC(=O)NCCN(C)CC(F)F` [Compound 8342, (2S)-2-[(2S)-4-cyclohexyl-2-{[(2S)-1-(4-fluorobenzoyl)pyrrolidin-2-yl]formamido}butanamido]-N-(1-{[(1S)-1-{[(1S)-1-({1-[(1-{[2-({2-[(2,2-difluoroethyl)(methyl)amino]ethyl}carbamoyl)ethyl]carbamoyl}-1-methylethyl)carbamoyl]-1-methylethyl}carbamoyl)-3-methylbutyl]carbamoyl}-3-methylbutyl]carbamoyl}-1-methylethyl)-4-methylpentanamide] ({Benzoyl(4-F)}-P[hCha]L[Aib]LL[Aib][Aib][βAla]-X11), the IC50 at 68 h in data set [1] (setting [4]) was determined as 6790 nM.
As to `CCCCCCCCCCCCCCCCOP(=O)([O-])OCC[N+](C)(C)C` [Miltefosine, reference compound], the half-inhibitory concentration (IC50) in data set [2] (Leishmania donovani, reference compound, L.don.ax., read-out: IC50 Concurrent) worked out at 162 nM; in data set [3], 162 nM.

What is called IC50 is the concentration at which inhibition is half-maximal.
